Values quoted from earlier work in patent US8084444B2, “Treatment of dermatitis with dehydroepiandrosterone-glucocorticoid combinations” (RxDino, LLC, priority 2004, dated 2011).

Conditions: equivalent in glucocorticoid potency

Structure (SMILES) | Approximate Glucocorticoid Dose Equivalent [mg]
C[C@]12CCC(=O)C=C1CC[C@@H]1[C@@H]2C(=O)C[C@@]2(C)[C@H]1CC[C@]2(O)C(=O)CO [Cortisone] | ~25
C[C@]12CCC(=O)C=C1CC[C@@H]1[C@@H]2[C@@H](O)C[C@@]2(C)[C@H]1CC[C@]2(O)C(=O)CO [Hydrocortisone] | ~20
C[C@]12C=CC(=O)C=C1CC[C@@H]1[C@@H]2[C@@H](O)C[C@@]2(C)[C@H]1CC[C@]2(O)C(=O)CO [Prednisolone] | ~5
C[C@]12C=CC(=O)C=C1CC[C@H]1[C@@H]3C[C@@H](O)[C@](O)(C(=O)CO)[C@@]3(C)C[C@H](O)[C@@]12F [Triamcinolone] | ~0.8
